Measured values from ChEMBL document CHEMBL3297705, “Discovery of 5,6,7,8-tetrahydropyrido[3,4-d]pyrimidine inhibitors of Erk2” (Bioorg Med Chem Lett, 2014).

How the values were obtained:
[1] = target: T1, Mitogen-activated protein kinase 1 (Homo sapiens, UniProt P28482)
Description: Inhibition of human recombinant N-terminal 6-His-tagged ERK2 expressed in Escherichia coli using S/T17 as substrate after 30 mins by spectrophotometry

[2] = target: T1, Mitogen-activated protein kinase 1; remark: listed apart in the source
Description: Inhibition of ERK2 in human HepG2 cells assessed as P90RSK phosphorylation at Ser380 after 1.5 hrs by fluorescence assay

[3] = Plasma protein binding in human; assay type: ADME, cell-free; details: read-out: PPB (converted)
[4] = target: Cyclin-dependent kinase 2 (Homo sapiens, UniProt P24941)
Description: Inhibition of Cdk2 (unknown origin)

[5] = Tmax in cynomolgus monkey at 3 mg/kg, po; assay type: ADME, organism-based, Macaca fascicularis; design: dose 3 mg/kg, route oral; details: in vivo
[6] = Half life in cynomolgus monkey at 3 mg/kg, po; assay type: ADME, organism-based, Macaca fascicularis; design: dose 3 mg/kg, route oral; details: in vivo
[7] = AUC (0 to infinity) in cynomolgus monkey at 3 mg/kg, po; assay type: ADME, organism-based, Macaca fascicularis; design: dose 3 mg/kg, route oral, time infinity; details: plasma
[8] = Clearance in cynomolgus monkey at 1 mg/kg, iv; assay type: ADME, organism-based, Macaca fascicularis; design: dose 1 mg/kg, route intravenous; details: in vivo
[9] = Oral bioavailability in cynomolgus monkey at 3 mg/kg; assay type: ADME, organism-based, Macaca fascicularis; details: in vivo
[10] = Antiproliferative activity against human HCT116 cells expressing K-Ras […] mutant after 72 hrs by Cell-Titre Blue assay; assay type: functional, cell-based; details: HCT-116, 72 h
[11] = system: A-375; assay: Antiproliferative activity against human A375 cells expressing B-Raf V600E mutant after 72 hrs by Cell-Titre Blue assay; assay type: functional, cell-based; details: A-375, 72 h
[12] = system: Mus musculus; assay: In vivo inhibition of ERK2 in nude mouse xenografted with human HCT116 cells assessed as pRSK knockdown at 75 mg/kg, po qd after 1 hr relative to vehicle-treated control; assay type: functional; details: HCT-116, 1 h
[13] = system: Mus musculus; assay: In vivo inhibition of ERK2 in nude mouse xenografted with human HCT116 cells assessed as pRSK knockdown at 75 mg/kg, po qd after 8 hrs relative to vehicle-treated control; assay type: functional; details: HCT-116, 8 h
[14] = system: Mus musculus; assay: In vivo inhibition of ERK2 in nude mouse xenografted with human HCT116 cells assessed as pRSK knockdown at 150 mg/kg, po qd after 8 hrs relative to vehicle-treated control; assay type: functional; details: HCT-116, 8 h
[15] = system: Mus musculus; assay: Toxicity in nude mouse xenografted with human HCT116 cells assessed as body weight loss at 150 mg/kg, po bid relative to vehicle-treated control; assay type: organism-based, HCT-116; design: dose 150 mg/kg, route oral; details: in vivo
[16] = Toxicity in po dosed nude mouse xenografted with human HCT116 cells administered bid; assay type: organism-based, HCT-116; details: in vivo
[17] = Clearance in CD-1 mouse at 0.5 mg/kg, iv; assay type: ADME, organism-based; design: dose 0.5 mg/kg, route intravenous; details: in vivo
[18] = Oral bioavailability in CD-1 mouse at 2 mg/kg; assay type: ADME, organism-based; details: in vivo
[19] = Cmax in NCR nude mouse at 30 mg/kg, po; assay type: ADME, organism-based; design: dose 30 mg/kg, route oral; details: in vivo
[20] = Tmax in NCR nude mouse at 30 mg/kg, po; assay type: ADME, organism-based; design: dose 30 mg/kg, route oral; details: in vivo
[21] = Half life in NCR nude mouse at 30 mg/kg, po; assay type: ADME, organism-based; design: dose 30 mg/kg, route oral; details: in vivo
[22] = AUC (0 to infinity) in NCR nude mouse at 30 mg/kg, po; assay type: ADME, organism-based; design: time infinity, dose 30 mg/kg, route oral; details: plasma
[23] = Clearance in NCR nude mouse at 1 mg/kg, iv; assay type: ADME, organism-based; design: dose 1 mg/kg, route intravenous; details: in vivo
[24] = Oral bioavailability in NCR nude mouse at 30 mg/kg; assay type: ADME, organism-based; details: in vivo
[25] = Cmax in NCR nude mouse at 100 mg/kg, po; assay type: ADME, organism-based; design: dose 100 mg/kg, route oral; details: in vivo
[26] = Tmax in NCR nude mouse at 100 mg/kg, po; assay type: ADME, organism-based; design: dose 100 mg/kg, route oral; details: in vivo
[27] = Half life in NCR nude mouse at 100 mg/kg, po; assay type: ADME, organism-based; design: dose 100 mg/kg, route oral; details: in vivo
[28] = AUC (0 to infinity) in NCR nude mouse at 100 mg/kg, po; assay type: ADME, organism-based; design: time infinity, dose 100 mg/kg, route oral; details: plasma
[29] = Oral bioavailability in NCR nude mouse at 100 mg/kg; assay type: ADME, organism-based; details: in vivo
[30] = Cmax in NCR nude mouse at 150 mg/kg, po; assay type: ADME, organism-based; design: dose 150 mg/kg, route oral; details: in vivo
[31] = Tmax in NCR nude mouse at 150 mg/kg, po; assay type: ADME, organism-based; design: dose 150 mg/kg, route oral; details: in vivo
[32] = Half life in NCR nude mouse at 150 mg/kg, po; assay type: ADME, organism-based; design: dose 150 mg/kg, route oral; details: in vivo
[33] = AUC (0 to infinity) in NCR nude mouse at 150 mg/kg, po; assay type: ADME, organism-based; design: time infinity, dose 150 mg/kg, route oral; details: plasma
[34] = Oral bioavailability in NCR nude mouse at 150 mg/kg; assay type: ADME, organism-based; details: in vivo
[35] = Cmax in Sprague-Dawley rat at 5 mg/kg, po; assay type: ADME, organism-based; design: dose 5 mg/kg, route oral; details: in vivo
[36] = Tmax in Sprague-Dawley rat at 5 mg/kg, po; assay type: ADME, organism-based; design: dose 5 mg/kg, route oral; details: in vivo
[37] = Half life in Sprague-Dawley rat at 5 mg/kg, po; assay type: ADME, organism-based; design: dose 5 mg/kg, route oral; details: in vivo
[38] = AUC (0 to infinity) in Sprague-Dawley rat at 5 mg/kg, po; assay type: ADME, organism-based; design: time infinity, dose 5 mg/kg, route oral; details: plasma
[39] = Clearance in Sprague-Dawley rat at 1 mg/kg, iv; assay type: ADME, organism-based; design: dose 1 mg/kg, route intravenous; details: in vivo
[40] = Oral bioavailability in Sprague-Dawley rat at 5 mg/kg; assay type: ADME, organism-based; details: in vivo
[41] = Cmax in beagle dog at 2 mg/kg, po; assay type: ADME, organism-based, Canis lupus familiaris; design: dose 2 mg/kg, route oral; details: in vivo
[42] = Tmax in beagle dog at 2 mg/kg, po; assay type: ADME, organism-based, Canis lupus familiaris; design: dose 2 mg/kg, route oral; details: in vivo
[43] = Half life in beagle dog at 2 mg/kg, po; assay type: ADME, organism-based, Canis lupus familiaris; design: dose 2 mg/kg, route oral; details: in vivo
[44] = AUC (0 to infinity) in beagle dog at 2 mg/kg, po; assay type: ADME, organism-based, Canis lupus familiaris; design: dose 2 mg/kg, route oral, time infinity; details: plasma
[45] = Clearance in beagle dog at 1 mg/kg, iv; assay type: ADME, organism-based, Canis lupus familiaris; design: dose 1 mg/kg, route intravenous; details: in vivo
[46] = Oral bioavailability in beagle dog at 2 mg/kg; assay type: ADME, organism-based, Canis lupus familiaris; details: in vivo
[47] = Cmax in cynomolgus monkey at 3 mg/kg, po; assay type: ADME, organism-based, Macaca fascicularis; design: dose 3 mg/kg, route oral; details: in vivo

T1 sequence (P28482 whole entry): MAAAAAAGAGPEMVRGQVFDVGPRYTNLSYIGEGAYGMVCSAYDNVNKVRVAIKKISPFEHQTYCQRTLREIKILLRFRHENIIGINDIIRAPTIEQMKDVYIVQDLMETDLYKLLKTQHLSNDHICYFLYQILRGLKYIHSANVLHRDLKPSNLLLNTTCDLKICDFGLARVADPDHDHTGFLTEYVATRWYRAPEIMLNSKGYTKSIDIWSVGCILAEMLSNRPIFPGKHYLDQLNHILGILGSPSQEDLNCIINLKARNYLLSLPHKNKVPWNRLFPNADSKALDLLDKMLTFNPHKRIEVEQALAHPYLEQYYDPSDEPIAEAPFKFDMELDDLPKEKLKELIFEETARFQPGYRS

CC(C)(C)Nc1ncc2c(n1)CN(C(=O)N[C@H](CO)c1ccc(F)c(Cl)c1)CC2
IC50 [1]: 41 nM
IC50 [2]: 3010 nM

O=C(N[C@H](CO)c1ccc(F)c(Cl)c1)N1CCc2cnc(N[C@H]3CC[C@H](O)C3)nc2C1
IC50 [1]: 2 nM
IC50 [2]: 198 nM

Cc1cc(Nc2ncc3c(n2)CN(C(=O)N[C@H](C)c2ccc(Cl)c(Cl)c2)CC3)ccn1
fraction unbound [3]: 0.006
IC50 [1]: 1 nM
IC50 [2]: 23 nM
IC50 [4]: 9 nM

COc1ccc(CNC(=O)N2CCc3cnc(NC(C)C)nc3C2)cc1
IC50 [1]: 106 nM
IC50 [2]: 4400 nM

O=C(N[C@H](CO)c1ccc(F)c(Cl)c1)N1CCc2cnc(Nc3ccc(F)cc3)nc2C1
IC50 [1]: 3 nM
IC50 [2]: 348 nM

Cc1noc(C)c1Nc1ncc2c(n1)CN(C(=O)N[C@H](CO)c1ccc(F)c(Cl)c1)CC2
IC50 [2]: 13200 nM

CC(C)Nc1ncc2c(n1)CN(C(=O)NCc1ccccc1)CC2
IC50 [1]: 283 nM
IC50 [2]: 4380 nM

CC(C)Nc1ncc2c(n1)CN(C(=O)NCc1ccc(F)cc1)CC2
IC50 [1]: 69 nM
IC50 [2]: 6620 nM

CC(C)Nc1ncc2c(n1)CN(C(=O)NCc1ccc(Cl)cc1)CC2
IC50 [1]: 91 nM
IC50 [2]: 2140 nM

CC(C)Nc1ncc2c(n1)CN(C(=O)NCc1cccc(F)c1)CC2
IC50 [1]: 93 nM
IC50 [2]: 2610 nM

CC(=O)Nc1ncc2c(n1)CN(C(=O)N[C@H](CO)c1ccc(F)c(Cl)c1)CC2
IC50 [1]: 93 nM
IC50 [2]: 7440 nM

Cn1cc(Nc2ncc3c(n2)CN(C(=O)N[C@H](CO)c2ccc(F)c(Cl)c2)CC3)cn1
IC50 [1]: 6 nM
IC50 [2]: 247 nM

Cc1cc(Nc2ncc3c(n2)CN(C(=O)N[C@H](CO)c2ccc(F)c(Cl)c2)CC3)ccn1
IC50 [1]: 7 nM
IC50 [2]: 445 nM

O=C(N[C@H](CO)c1ccc(Cl)c(F)c1)N1CCc2cnc(NC3CCOCC3)nc2C1
Tmax [5]: 79.8 min
half-life [6]: 312 min
AUC(0-inf) [7]: 0.65 µM·h
clearance [8]: 33 mL/min/kg
bioavailability [9]: 19%
EC50 [10]: 740 nM
EC50 [11]: 390 nM
inhibition in vivo at 75 mg/kg [12]: 75%
inhibition in vivo at 75 mg/kg [13]: 20%
inhibition in vivo at 150 mg/kg [14]: 55%
Activity [15]: Non-toxic
MTD [16]: 50 mg/kg
clearance [17]: 33 mL/min/kg
bioavailability [18]: 29%
Cmax [19]: 3120 nM
Tmax [20]: 30 min
half-life [21]: 144 min
AUC(0-inf) [22]: 4.81 µM·h
clearance [23]: 134 mL/min/kg
bioavailability [24]: 58%
Cmax [25]: 9820 nM
Tmax [26]: 15 min
half-life [27]: 450 min
AUC(0-inf) [28]: 30 µM·h
bioavailability [29]: 73%
Cmax [30]: 13900 nM
Tmax [31]: 15 min
half-life [32]: 162 min
AUC(0-inf) [33]: 26.7 µM·h
bioavailability [34]: 64%
Cmax [35]: 90 nM
Tmax [36]: 19.8 min
half-life [37]: 102 min
AUC(0-inf) [38]: 0.2 µM·h
clearance [39]: 104 mL/min/kg
bioavailability [40]: 11%
Cmax [41]: 590 nM
Tmax [42]: 25.2 min
half-life [43]: 36 min
AUC(0-inf) [44]: 0.61 µM·h
clearance [45]: 32 mL/min/kg
bioavailability [46]: 26%
Cmax [47]: 160 nM

CC(C)Nc1ncc2c(n1)CN(C(=O)NCc1cccc(Cl)c1)CC2
IC50 [1]: 89 nM
IC50 [2]: 1860 nM

O=C(N[C@H](CO)c1ccc(Cl)c(Cl)c1)N1CCc2cnc(NC3CCOCC3)nc2C1
fraction unbound [3]: 0.103
IC50 [1]: 1 nM
IC50 [2]: 17 nM
IC50 [4]: 11 nM

C[C@@H](NC(=O)N1CCc2cnc(NC3CCOCC3)nc2C1)c1ccc2cc[nH]c2c1
IC50 [1]: 2 nM
IC50 [2]: 21 nM
IC50 [4]: 69 nM

C[C@@H](NC(=O)N1CCc2cnc(NC3CCOCC3)nc2C1)c1ccc(Cl)c(F)c1
fraction unbound [3]: 0.095
IC50 [1]: 1 nM
IC50 [2]: 12 nM
IC50 [4]: 13 nM

CC[C@@H](NC(=O)N1CCc2cnc(NC3CCOCC3)nc2C1)c1ccc(C#N)c(Cl)c1
IC50 [1]: 1 nM
IC50 [2]: 4 nM
IC50 [4]: 2 nM

C[C@@H](CO)Nc1ncc2c(n1)CN(C(=O)N[C@H](CO)c1ccc(F)c(Cl)c1)CC2
IC50 [1]: 3 nM
IC50 [2]: 473 nM

CC(C)CNc1ncc2c(n1)CN(C(=O)N[C@H](CO)c1ccc(F)c(Cl)c1)CC2
IC50 [1]: 10 nM
IC50 [2]: 513 nM

C[C@@H](NC(=O)N1CCc2cnc(Nc3cnn(C)c3)nc2C1)c1ccc(Cl)c(Cl)c1
fraction unbound [3]: 0.018
IC50 [1]: 1 nM
IC50 [2]: 35 nM
IC50 [4]: 4 nM

C[C@@H](NC(=O)N1CCc2cnc(Nc3ccnn3C)nc2C1)c1ccc(Cl)c(Cl)c1
fraction unbound [3]: 0.01
IC50 [1]: 1 nM
IC50 [2]: 43 nM
IC50 [4]: 23 nM
